Results as given in PMC9743095 (Journal of Medicinal Chemistry, 2022).

Key:
Experiment in all cases: cells
Type in all cases: cell-based
HepG2 = conditions: Homo sapiens, HepG2, 72 h; for CC50: read-out: LC50; for Emax: read-out: MI%
Procedure: (§1) The assay was contracted and carried out by WuXi AppTec (Shanghai) Co., Ltd. The tumor cell lines CCRF-CEM, HL-60, KG-1, MOLT-4, K562, MV4-11, THP-1, HEL92.1.7, NCI-H929, RPMI-8226, Jurkat, Z138, RL, HS445, HepG2, MCF-7, Bx-PC-3, HT29, MIA PaCa-2, and SW620 were seeded at cell densities of […] 10^3 cells/well in a 96-well plate the day before drug incubation. Then, the plates were incubated for 72 h with the different concentrations of compound to be tested. After the incubation period, 50 μL of MTS was added and the tumor cells were incubated for 4 h at 37 °C. The data were read and collected by a Spectra Max 340 absorbance microplate reader. The compounds were tested in duplicate with nine serial concentrations (3.16-fold titrations with 198 μM as the highest concentration), and the data were analyzed by XLfit software.

KG-1 = conditions: Homo sapiens, KG-1, 72 h, read-out: LC50
Procedure: as §1

CCRF-CEM = conditions: Homo sapiens, 72 h; for CC50: read-out: LC50; for Emax: read-out: MI%
Procedure: as §1

K562 = conditions: Homo sapiens, K562, 72 h; for CC50: read-out: LC50; for Emax: read-out: MI%
Procedure: as §1

MOLT-4 = conditions: Homo sapiens, MOLT-4, 72 h; for CC50: read-out: LC50; for Emax: read-out: MI%
Procedure: as §1

MCF-7 = conditions: Homo sapiens, MCF7, 72 h; for CC50: read-out: LC50; for Emax: read-out: MI%
Procedure: as §1

HL-60 = conditions: Homo sapiens, HL-60, 72 h; for CC50: read-out: LC50; for Emax: read-out: MI%
Procedure: as §1

| SMILES | CC50 (HepG2) | CC50 (KG-1) | CC50 (CCRF-CEM) | Emax (CCRF-CEM) | CC50 (K562) | Emax (K562) | CC50 (MOLT-4) | Emax (MOLT-4) | CC50 (MCF-7) | Emax (MCF-7) | CC50 (HL-60) | Emax (HL-60) | Emax (HepG2) |
| --- | --- | --- | --- | --- | --- | --- | --- | --- | --- | --- | --- | --- | --- |
| C[C@H](NP(=O)(Oc1ccccc1)O[C@@H]1C[C@@H](COP(=O)(N[C@H](C)C(=O)OCc2ccccc2)Oc2ccccc2)O[C@H]1n1cnc2c(N)ncnc21)C(=O)OCc1ccccc1 (stereo partly drawn) [Compound 5a] | 85.5 µM | 112 µM | 64.8 µM | 65% | 26.3 µM | 78% | 62.9 µM | 75% | 10.3 µM | 97% | 143 µM | 57% | – |
| C[C@H](NP(=O)(Oc1cccc2ccccc12)O[C@@H]1C[C@@H](COP(=O)(N[C@H](C)C(=O)OCc2ccccc2)Oc2cccc3ccccc23)O[C@H]1n1cnc2c(N)ncnc21)C(=O)OCc1ccccc1 (stereo partly drawn) [Compound 5b] | 30.2 µM | 66.3 µM | 27.1 µM | 99% | 25.4 µM | 87% | 14.8 µM | 100% | 5.05 µM | 99% | 78.6 µM | 99% | 90% |
| C[C@H](NP(=O)(Oc1ccccc1)O[C@@H]1C[C@@H](CO)O[C@H]1n1cnc2c(N)ncnc21)C(=O)OCc1ccccc1 (stereo partly drawn) [Compound 6a] | 83.1 µM | 79.4 µM | 17.6 µM | 99% | 26.9 µM | 89% | 18.6 µM | 100% | 5.06 µM | 94% | 31.1 µM | 80% | 55% |
| C[C@H](NP(=O)(N[C@@H](C)C(=O)OCc1ccccc1)OC[C@@H]1C[C@@H](O)[C@H](n2cnc3c(N)ncnc32)O1)C(=O)OCc1ccccc1 [Compound 9] | 157 µM | 34.1 µM | 7.03 µM | 100% | 24.3 µM | 97% | 3.52 µM | 100% | 13 µM | 97% | 16.5 µM | 100% | 55% |
